“Also recorded” adds a separate entry of the source.
How the values were obtained:
[1] = biological target: T1, FUS low complexity domain (residues 1 to 163) (Homo sapiens, UniProt P35637); experiment: 1H-15N HSQC NMR of FUS low complexity domain with compound; type: binding; conditions: 500 μM compound
T1 construct: untagged FUS low complexity domain (residues 1 to 163) expressed, purified and analysed; made in house
T1 sequence (P35637 1-163): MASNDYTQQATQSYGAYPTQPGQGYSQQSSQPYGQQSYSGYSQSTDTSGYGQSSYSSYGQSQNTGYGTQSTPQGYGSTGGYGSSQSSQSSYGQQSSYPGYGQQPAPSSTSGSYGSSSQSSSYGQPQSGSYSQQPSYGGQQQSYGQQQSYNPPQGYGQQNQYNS
Experimental: Finally, mechanistic detail was analyzed at the sub-molecular level by using NMR of the FUS prion-like N-terminal LCD to determine putative sites of lipoamide interaction. The LCD is able to phase separate to form condensates in vitro and the individual residues can be resolved and assigned in a ^1H-^15N heteronuclear single quantum coherence spectrum. ^1H-^15N analyses reveal a change in environment of individual residues as indicated by their corresponding chemical shifts. The magnitude of chemical shift changes were compared with and without both lipoamide or mitoxantrone. […] This leaves several possibilities: Perhaps lipoamide interacts with the FUS LCD only when phase separated, potentially reducing viscosity, or interacts with the condensate phase boundary, perhaps increasing surface tension. Such interactions may reduce formation or expansion of aggregated forms of FUS involved in condensate hardening and reduced liquidity.
For analysis of compound interaction with FUS untagged FUS low complexity domain (residues 1 to 163) expressed, purified and analysed using ^1H-^15N heteronuclear single quantum coherence NMR and sample conditions previously described^14 in the presence of 500 μM compound or equivalent DMSO solvent control (1%).

[2] = test system: HeLa, iPS and motor neuron cells; experiment: Tolerance by cells in culture; type: cell-based
FUS GFP = biological target: T2, FUS GFP (Homo sapiens, UniProt P35637); experiment: In vitro purified FUS GFP droplet screen; type: biochemical; conditions: low salt conditions, 1 mM DTT, up to 100 μM compound
T2 construct: His MBP (N, cleaved yes); made in house; host or cells: baculovirus/insect cell expression system
T2 sequence (P35637 1-526): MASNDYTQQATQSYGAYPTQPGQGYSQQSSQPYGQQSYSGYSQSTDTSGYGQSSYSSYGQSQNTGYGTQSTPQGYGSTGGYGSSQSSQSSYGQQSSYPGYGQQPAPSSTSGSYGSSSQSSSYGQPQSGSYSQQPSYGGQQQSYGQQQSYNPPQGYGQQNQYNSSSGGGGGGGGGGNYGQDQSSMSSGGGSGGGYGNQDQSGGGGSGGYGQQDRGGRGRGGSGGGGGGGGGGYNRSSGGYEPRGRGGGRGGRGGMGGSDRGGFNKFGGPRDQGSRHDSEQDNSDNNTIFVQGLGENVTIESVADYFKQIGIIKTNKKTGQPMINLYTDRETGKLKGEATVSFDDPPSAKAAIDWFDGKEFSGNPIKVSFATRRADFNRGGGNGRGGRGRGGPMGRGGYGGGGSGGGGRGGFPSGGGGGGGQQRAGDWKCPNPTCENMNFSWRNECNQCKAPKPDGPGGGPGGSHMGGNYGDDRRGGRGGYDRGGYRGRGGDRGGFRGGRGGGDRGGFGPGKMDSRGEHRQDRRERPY
Experimental: Compounds that can directly interact with FUS were of primary interest, therefore the inventors performed a follow up screen for action of compounds on FUS droplet formation in vitro (FIG. 1D). […] Hits were identified by the effect on number of FUS droplets formed and the partition of FUS into the droplets formed under low salt conditions in vitro in the presence of 1 mM DTT to mimic the reducing intracellular environment (FIG. 1E).
The effect of compounds on FUS GFP droplets in vitro was assessed in 384 well plate format. The compound volume (in DMSO) necessary for 1, 3, 10, 30 or 100 μM final concentration were added by acoustic dispensing (Labcyte Echo 550) to 96 well plate wells containing 3 μl FUS GFP diluted in 50 mM Tris. HCl pH 7.4, 1 mM DTT (for low salt assays). Final DMSO concentration was 0.01 to 1%. Using a Freedom Evo 200 liquid handling workstation (TECAN) the FUS GFP/compound mixture was diluted in 7 μl assay buffer containing 50 mM Tris. HCl pH 7.4, 1 mM DTT, 50 mM KCl and 0.7 μM FUS GFP. Compound/FUS GFP and assay buffer were mixed by a standardised pipetting procedure then split to four wells in clear bottom 384 well plates then immediately imaged using a CellVoyager CV7000 automated spinning disc confocal microscope (as above). […] Droplet number and FUS GFP partition into droplets were analysed with a fixed intensity threshold using ImageJ.

NC(=O)CCCCC1CCSS1 (racemic) [lipoamide, 5-(1,2-dithiolan-3-yl)pentanamide]
chemical shift changes of FUS LCD residues [1]: no single, clear sites of interaction
tolerance by HeLa, iPS and motor neuron cells in culture [2]: well-tolerated
FUS GFP droplet number, partition into droplets and droplet size (FUS GFP): increase condensate droplet number, partition into droplets and the droplets were larger; also recorded: larger drops

From patent US12422427B2, “Compounds for treatment of diseases and methods of screening therefor” (Max-Planck-Gesellschaft zur Förderung der Wissenschaften …, priority 2018, dated 2025)
